Data: patent publication US20210290648A1, “Potentiation of B-Lactam Antibiotics and B-Lactam/B-Lactamase Inhibitor Combinations Against Multidrug and Extensively Drug-Resistant Pseudomonas Aeruginosa Using Non-Ribosomal Tobramycin-Cyclam Conjugates” (University of Manitoba, priority 2018, published 2021)

Columns and labels:
PA 262 = assay: Checkerboard combination study / MIC; assay type: cell-based, Pseudomonas aeruginosa
PA 91433 = assay: Checkerboard combination study / MIC; assay type: cell-based, Pseudomonas aeruginosa; conditions: for MICCombination (2) / FIC2 / MICCombination (antibiotic) / FICI / MICAntibiotic / FICAntibiotic: PA 91433; for MICCombination (antibiotic): MIC of antibiotic combined with compound 2; for FICI: antibiotic + compound 2; for MICAntibiotic: antibiotic alone; for FICAntibiotic: with compound 2
PA 101243 = assay: Checkerboard combination study / MIC; assay type: cell-based, Pseudomonas aeruginosa; conditions: PA 101243; for MICCombination (antibiotic): MIC of antibiotic combined with compound 2; for FICI: antibiotic + compound 2; for MICAntibiotic: antibiotic alone; for FICAntibiotic: with compound 2
MDR PA108590 = assay: Time-kill assay, triple combination; assay type: cell-based, Pseudomonas aeruginosa
[1] = test system: MDR PA101885-challenged larvae; assay: Galleria mellonella infection model, efficacy; assay type: in vivo; conditions: for mortality of larvae, monotherapy: aztreonam […], meropenem 37.5 mg/kg, compound 2 100 mg/kg; for mortality of larvae, monotherapy / survival of larvae: after 24 h
Experimental: In vivo synergistic effects were determined using Galleria mellonella infection model, as previously described (20). Briefly, worms were purchased from The Worm Lady® Live Feeder (ON, Canada), stored in their natural habitat at 16° C., and used within 10 days of delivery. The worms (average weight of 250 mg) were used for tolerability and efficacy studies. Tolerability study was performed by injecting 10 μL of antimicrobial agents only at concentrations equivalent to 100 mg/kg or 200 mg/kg. The worms (ten in each group) were incubated at 37° C. and monitored for 96 h. For efficacy studies, the virulence and bacterial load required to kill 100% of the worms within 12-18 h (with no treatment) was first determined, which is approximately 5 CFU. Overnight grown culture of respective MDR P. aeruginosa isolate was standardized to 0.5 McFarland standard and diluted in PBS to a final concentration of 5×10^2CFU/mL. 10 μL of this solution (5 CFU) was injected into each worm and incubated for 3 h at 37° C. […] Worms treated with 10 μL PBS or high concentrations of test antibiotics served as negative and positive control, respectively. The worms were incubated at 37° C. in Petri dishes lined with filter paper and scored for survivability every 6 h for up to 48 h. This experiment was repeated to give a total of thirty worms (n=30) in each case. Survival data curves were plotted using Kaplan-Meier survival analysis.

[2] = test system: MDR PA108590-challenged larvae; assay: Galleria mellonella infection model, efficacy; assay type: in vivo; conditions: ceftazidime+avibactam+compound 2, 1.56+1.56+3.12 mg/kg
Source text: In vivo larvae-infection model.

PA108590 = assay: MIC / triple combination susceptibility; assay type: cell-based, Pseudomonas aeruginosa; conditions: triple combination with avibactam and compound 2 (8 μM each); ceftazidime, aztreonam, meropenem
Source text: The diazabicyclooctane β-lactamase inhibitor, avibactam, is able to inhibit a wide range of serine β-lactamases (class A, C, and D) but not metallo-β-lactamases (class B) (50, 51).^50,51 However, the high concentration of avibactam required to neutralize the effects of β-lactamase enzymes in these phenotypes is indicative of concomitant permeability barriers in the isolates, such as reduced porin uptake. […] The results of this study are shown in (FIG. 6). All isolates were resistant to all three β-lactam antibiotics used for the study. […] As expected, the study with meropenem was slightly different from others.
Antimicrobial Susceptibility Assay. The in vitro antimicrobial activity of all compounds/antibiotics against a panel of bacteria was evaluated by microbroth dilution method in accordance with the Clinical and Laboratory Standards Institute (CLSI) guidelines. […]
Checkerboard Assay. […] After incubation, the plates were read on EMax® Plus microplate reader (Molecular Devices, Sunnyvale, Calif., USA) at 590 nm. MIC was recorded as wells with the lowest concentration of drugs with no bacterial growth. The fractional inhibitory concentration (FIC) for each antibiotic was calculated by dividing the MIC of the antibiotic in the presence of adjuvant by the MIC of the antibiotic alone. […]

[3] = test system: MDR/XDR P. aeruginosa clinical isolates; assay: MIC and checkerboard, panel of clinical isolates; assay type: cell-based, Pseudomonas aeruginosa; conditions: antibiotic + compound 2 (8.7 μM); resistant P. aeruginosa isolates
MDR PA101885 = assay: Time-kill assay; assay type: cell-based, Pseudomonas aeruginosa; conditions: for interaction with compound 2 in time-kill: 24 h; for time-kill effect, antibiotic + compound 2: CLSI breakpoint concentration + 4.4 μM or 8.7 μM compound 2, after about 6 h; for time-kill effect, antibiotic alone: at CLSI breakpoint concentration (aztreonam 8 μg/mL, meropenem 2 μg/mL)
Experimental: (§1) Time-kill curves typically reveal the kinetics of bacterial growth and death, with respect to time, at different antimicrobial concentrations. An antibiotic could either be bactericidal or bacteriostatic under specific growth conditions. Bactericidal activity is defined as a ≥3-log reduction in the total CFU/mL from the original inoculum over 24 hours while bacteriostatic activity is defined as maintenance of <3-log reduction in the total CFU/mL from the original inoculum (44). […] Growth curves were initially performed to ensure that strains will reach a stable early- to mid-log phase after 4 h of pre-incubation in antimicrobial-free LB medium.
(§2) Time-kill assay. Time-kill curve analyses were performed by culturing P. aeruginosa in LB medium, in the presence of antibiotics alone and in combination with test adjuvants. MICs of antibiotics and adjuvants were determined before the experiment following CLSI microbroth dilution guidelines. Growth curves were initially performed to confirm that all strains will reach a stable early- to mid-log phase after 4 h of pre-incubation in antimicrobial-free LB medium. A 0.5 McFarland inoculum of each strain was prepared in sterile 0.85% saline solution from an overnight grown culture. For each strain, 30 μl of the prepared inoculum was diluted to 3 ml of LB broth (containing different combinations of antimicrobial agents and adjuvants) and incubated at 37° C. shaking at 250 rpm. At specific time intervals (0, 1, 3, 6, 9, and 24 h), 100 μl was taken from each sample, serially diluted in sterile PBS, plated on LB agar plates, and incubated at 37° C. in a humid 5% CO2-enriched atmosphere. Bacteria colonies were counted after 20 h of incubation.

[4] = test system: wild type P. aeruginosa PAO1; assay: Time-kill assay; assay type: cell-based, Pseudomonas aeruginosa; conditions: WT PAO1; for interaction with compound 2 in time-kill: 24 h; for time-kill effect, antibiotic alone: at MIC (aztreonam 4 μg/mL, meropenem 1 μg/mL)
Experimental: as §1, §2

Compound: 5-O-(Octylcyclam)-tobramycin.9TFA [Compound 2]
- MICCombination (2) (PA 262; MIC of 2 combined with AZT): 8 µg/mL
- MICCombination (2) (PA 262; MIC of 2 combined with CAZ): 16 µg/mL
- MICCombination (2) (PA 262; MIC of 2 combined with CEF): 16 µg/mL
- MICCombination (2) (PA 262; MIC of 2 combined with DOR): 16 µg/mL
- MICCombination (2) (PA 262; MIC of 2 combined with MER): 16 µg/mL
- MICCombination (2) (PA 262; MIC of 2 combined with PIP): 4 µg/mL
- FIC2 (PA 262; with AZT): <0.0313
- FIC2 (PA 262; with CAZ): <0.0625
- FIC2 (PA 262; with CEF): <0.0625
- FIC2 (PA 262; with DOR): <0.0625
- FIC2 (PA 262; with MER): <0.0625
- FIC2 (PA 262; with PIP): <0.0156
- MICCombination (2) (PA 91433; MIC of 2 combined with AZT): 16 µg/mL
- MICCombination (2) (PA 91433; MIC of 2 combined with CAZ): 0.25 µg/mL
- MICCombination (2) (PA 91433; MIC of 2 combined with CEF): 16 µg/mL
- MICCombination (2) (PA 91433; MIC of 2 combined with DOR): 8 µg/mL
- MICCombination (2) (PA 91433; MIC of 2 combined with MER): 4 µg/mL
- potentiation of meropenem (PA 91433; by compound 2, colistin-resistant clinical isolate PA91433): 64 fold
- FIC2 (PA 91433; with AZT): <0.0625
- FIC2 (PA 91433; with CAZ): <0.0010
- FIC2 (PA 91433; with CEF): <0.0625
- FIC2 (PA 91433; with DOR): <0.0313
- FIC2 (PA 91433; with MER): <0.0156
- MICCombination (2) (PA 101243; MIC of 2 combined with AZT): 2 µg/mL
- MICCombination (2) (PA 101243; MIC of 2 combined with CAZ): 1 µg/mL
- MICCombination (2) (PA 101243; MIC of 2 combined with CEF): 0.25 µg/mL
- MICCombination (2) (PA 101243; MIC of 2 combined with DOR): 0.25 µg/mL
- MICCombination (2) (PA 101243; MIC of 2 combined with MER): 0.5 µg/mL
- MICCombination (2) (PA 101243; MIC of 2 combined with PIP): 16 µg/mL
- FIC2 (PA 101243; with AZT): <0.0078
- FIC2 (PA 101243; with CAZ): <0.0039
- FIC2 (PA 101243; with CEF): <0.0010
- FIC2 (PA 101243; with DOR): <0.0010
- FIC2 (PA 101243; with MER): <0.0020
- FIC2 (PA 101243; with PIP): <0.0625
- bacterial counts lower than ceftazidime+avibactam (MDR PA108590; ceftazidime + avibactam + compound 2, after 3 h): > 2 Log
- time to sterilization of bacteria culture (MDR PA108590; triple combination ceftazidime + avibactam + compound 2, limit of detection 10 CFU/mL): ≤ 3 h
- reduction in total CFU/mL from original inoculum (MDR PA108590; triple combination ceftazidime + avibactam + compound 2, within 3 h): 6 Log
- mortality of larvae, monotherapy [1]: 100%
- activity by itself against MDR PA101885 ([1]; in vitro and in vivo): innately inactive
- survival of larvae ([1]; meropenem + compound 2, 25+25 mg/kg): 0%
- survival of larvae ([1]; meropenem + compound 2, 37.5+37.5 mg/kg): 85%
- survival of larvae ([2]; after 24 h): 100%
- survival of larvae ([2]; after 36 h): 95%
- potentiation of all three β-lactam antibiotics (PA108590): 128 fold

Compound: C[C@H]1[C@H](NC(=O)/C(=N\OC(C)(C)C(=O)O)c2csc(N)n2)C(=O)N1S(=O)(=O)O [Aztreonam]
- MICCombination (antibiotic) (PA 91433): 512 µg/mL
- FICI (PA 91433): <1.06
- MICAntibiotic (PA 91433): 512 µg/mL
- FICAntibiotic (PA 91433): 1.000
- MICCombination (antibiotic) (PA 101243): 8 µg/mL
- FICI (PA 101243): <0.26
- MICAntibiotic (PA 101243): 32 µg/mL
- FICAntibiotic (PA 101243): 0.250
- resistant isolates reaching CLSI clinical breakpoint [3]: seven out of nine
- interaction with compound 2 in time-kill (MDR PA101885): synergistic
- time-kill effect, antibiotic + compound 2 (MDR PA101885): strongly bactericidal
- time-kill effect, antibiotic alone (MDR PA101885): bacteriostatic effect
- interaction with compound 2 in time-kill [4]: synergistic
- time-kill effect, antibiotic alone [4]: time-dependent bactericidal effect
- survival of larvae ([1]; aztreonam 25 mg/kg single dose): 50%

Compound: C[C@@H](O)[C@H]1C(=O)N2C(C(=O)O)=C(S[C@@H]3CN[C@H](C(=O)N(C)C)C3)[C@H](C)[C@H]12 [Meropenem]
- MICCombination (antibiotic) (PA 262; MIC of antibiotic combined with compound 2): 2 µg/mL
- FICI (PA 262; antibiotic + compound 2): <0.13
- MICAntibiotic (PA 262; antibiotic alone): 32 µg/mL
- FICAntibiotic (PA 262; with compound 2): 0.063
- MICCombination (antibiotic) (PA 91433): 0.25 µg/mL
- FICI (PA 91433): <0.03
- MICAntibiotic (PA 91433): 16 µg/mL
- FICAntibiotic (PA 91433): 0.016
- MICCombination (antibiotic) (PA 101243): 2 µg/mL
- FICI (PA 101243): <0.25
- MICAntibiotic (PA 101243): 8 µg/mL
- FICAntibiotic (PA 101243): 0.250
- resistant isolates reaching CLSI clinical breakpoint [3]: eight out of nine
- interaction with compound 2 in time-kill (MDR PA101885): synergistic
- time-kill effect, antibiotic + compound 2 (MDR PA101885): strongly bactericidal
- time-kill effect, antibiotic alone (MDR PA101885): bacteriostatic effect
- interaction with compound 2 in time-kill [4]: indifferent
- time-kill effect, antibiotic alone [4]: time-dependent bactericidal effect
- mortality of larvae, monotherapy [1]: 100%
- survival of larvae ([1]; meropenem 37.5 mg/kg single dose): 0%
- survival of larvae ([1]; meropenem 50 mg/kg single dose): 80%
